The results in this text go back to ChEMBL document CHEMBL1152878, “N-Hydroxy-1,2-disubstituted-1H-benzimidazol-5-yl acrylamides as novel histone deacetylase inhibitors: design, synthesis, SAR studies, and in vivo antitumor activity” (Bioorg Med Chem Lett, 2009).

Data set [1] concerns HCT-116. As to the kind of experiment: Antiproliferative activity against human HCT116 cells after 96 hrs by celltiter assay. It counts as functional, cell-based. The conditions noted are these: HCT-116, 96 h.
The test system of a further data set is A2780. As to the kind of experiment: Antiproliferative activity against human A2780 cells after 96 hrs by celltiter assay. It counts as functional, cell-based. The conditions noted are these: A2780, 96 h.
A further data set concerns PC-3. As to the kind of experiment: Antiproliferative activity against human PC3 cells after 96 hrs by celltiter assay. It counts as functional, cell-based. The conditions noted are these: PC-3, 96 h.
The conditions of data set [2]: mouse, microsomes.
Description: (§1) Metabolic stability in mouse liver microsomes assessed as half life
Data set [3] is described as follows: in vitro. The conditions noted are these: human, liver microsomes. (Liver microsomes are a subcellular fraction often used to study metabolism.)
The subject of the next data set is COLO 205. In words: Antiproliferative activity against human COLO205 cells after 96 hrs by celltiter assay. Conditions: COLO 205, 96 h. It counts as functional, cell-based.
A further data set deals with Histone deacetylase 1 (Homo sapiens, UniProt Q13547).
The nature of data set [4]: in vitro. The conditions noted are these: mouse, liver microsomes.
Description: as §1
Data set [5] is described as follows: Toxicity in ip dosed athymic mouse assessed as maximum tolerated dose. It counts as organism-based. The conditions noted are these: in vivo.
In data set [6] the test system is HCT-116. In words: Antitumor activity against human HCT116 cells xenografted in athymic mouse assessed as tumor growth inhibition at 50 mg/kg, ip qd for 21 days measured on day 21. It counts as functional. The conditions noted are these: HCT-116, ip, 504 h, route intraperitoneal, read-out: TGI. Background: A xenograft is tissue or cells of one species grown in another, often human tumour cells in immunodeficient mice.

Data set [7] deals with HCT-116. In words: Antitumor activity against human HCT116 cells xenografted in athymic mouse assessed as tumor growth inhibition at 100 mg/kg, ip qd for 21 days measured on day 11. It counts as functional. The conditions noted are these: HCT-116, ip, route intraperitoneal, read-out: TGI.
For data set [8], the system named is Mus musculus. As to the kind of experiment: Toxicity in athymic mouse xenografted with human HCT116 cells at 100 mg/kg, ip qd for 21 days measured on day 12. It counts as organism-based, HCT-116. The arrangement: dose 100 mg/kg, route intraperitoneal. The conditions noted are these: in vivo, 504 h.
Data set [9] deals with HCT-116. In words: Antitumor activity against human HCT116 cells xenografted in athymic mouse assessed as tumor growth inhibition at 75 mg/kg, ip qd for 21 days measured on day 21. The conditions noted are these: HCT-116, ip, 504 h, route intraperitoneal, read-out: TGI. It counts as functional.
In data set [10] the test system is HCT-116. As to the kind of experiment: Antitumor activity against human HCT116 cells xenografted in athymic mouse assessed as tumor growth inhibition at 60 mg/kg, ip qd for 21 days measured on day 22. The conditions noted are these: HCT-116, ip, route intraperitoneal, read-out: TGI. It counts as functional.
In data set [11] the test system is HCT-116. In words: Induction of histone H3 hyperacetylation in human HCT116 cells. It counts as functional, cell-based.
The subject of data set [12] is Mus musculus. In words: Induction of histone H3 hyperacetylation in human HCT116 cells xenografted athymic mouse. It counts as functional, organism-based. The conditions noted are these: HCT-116.

What is called IC50 is the concentration needed to halve the response being measured. High values mean lower potency, low ones higher potency. Broadly, the half-life is how long it takes for the measured level to halve. One may read the MTD as the highest dose tested that stayed within the study's limit of toxicity.

Each structure is given as a SMILES string. The source made the active and inactive calls. The rule behind the calls is not given here.

Chain of Histone deacetylase 1 (Q13547 whole entry): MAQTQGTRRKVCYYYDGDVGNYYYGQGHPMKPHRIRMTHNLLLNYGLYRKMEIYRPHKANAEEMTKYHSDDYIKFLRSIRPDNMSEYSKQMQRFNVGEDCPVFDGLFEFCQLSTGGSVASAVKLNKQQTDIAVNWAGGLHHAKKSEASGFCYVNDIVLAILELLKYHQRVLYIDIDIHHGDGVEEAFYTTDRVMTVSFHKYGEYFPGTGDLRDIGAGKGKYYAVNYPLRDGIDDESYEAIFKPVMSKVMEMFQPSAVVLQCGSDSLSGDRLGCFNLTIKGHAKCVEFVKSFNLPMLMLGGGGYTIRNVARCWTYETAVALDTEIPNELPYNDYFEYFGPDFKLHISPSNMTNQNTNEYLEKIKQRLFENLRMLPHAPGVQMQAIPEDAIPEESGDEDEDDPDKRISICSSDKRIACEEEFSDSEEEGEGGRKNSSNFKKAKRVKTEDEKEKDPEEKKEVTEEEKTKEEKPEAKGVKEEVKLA
Description for Histone deacetylase 1: Inhibition of recombinant HDAC1 by fluorimetric assay

Regarding `CN(C)CC(C)(C)Cn1c(CCc2ccccc2)nc2cc(/C=C/C(=O)NO)ccc21.Cl.Cl`, the IC50 turned out to be 160 nM in the data set on HCT-116 [1], 110 nM in the data set on A2780 and 180 nM in the data set with PC-3. The t1/2 in data set [2] was 1 min. Moreover, the half-life in “in vitro [3]” was 12 min.
Take `O=C(/C=C/c1ccc2c(c1)nc(CCc1ccccc1)n2Cc1ccccn1)NO`: the IC50 in the data set with COLO 205 is 880 nM; against Histone deacetylase 1, 250 nM.
The like results for `CN(C)CCCn1c(CCc2ccccc2)nc2cc(/C=C/C(=O)NO)ccc21` were, in that order, 2000 nM and 190 nM.
Regarding `CC(C)Cc1nc2cc(CCC(=O)NO)ccc2n1CCCO`, at Histone deacetylase 1, the IC50 was over 10000 nM.
`O=C(/C=C/c1ccc2c(c1)nc(CCc1ccccc1)n2CCc1ccccc1)NO` showed an IC50 in the data set on COLO 205 of 8800 nM.
Consider `CN(C)CCCCn1c(CCc2ccccc2)nc2cc(/C=C/C(=O)NO)ccc21`, for which the values for the IC50 in the data set with COLO 205 and against Histone deacetylase 1 were 1100 nM and 160 nM, respectively.
Consider `Cl.Cn1c(CCc2ccccc2)nc2cc(/C=C/C(=O)NO)ccc21`, for which the values for the IC50 with HCT-116 [1], in the data set with A2780 and in the data set on PC-3 were 1300 nM, 730 nM and 890 nM, respectively. The half-life is over 30 min in “in vitro [3]” and 23 min in the data set “in vitro [4]”.
In the case of `O=C(/C=C/c1ccc2c(c1)nc(CCc1ccccc1)n2CCCO)NO`, half-maximal inhibition with COLO 205 (IC50) required 3200 nM.
On the same count and under the same terms, the figure for `COCCCn1c(CCc2ccccc2)nc2cc(/C=C/C(=O)NO)ccc21` is 2200 nM.
In the case of `Cn1c(CCc2ccccc2)nc2cc(/C=C/C(=O)NO)ccc21`, the IC50 in the data set with COLO 205 was 1200 nM. Further, in [5], the MTD came to 50 mg/kg. The inhibition in vivo at 50 mg/kg in the data set on HCT-116 [6] was found to be 23%.
As to `CN(C)CC(C)(C)Cn1c(CCc2ccccc2)nc2cc(/C=C/C(=O)NO)ccc21`, the inhibition in vivo at 100 mg/kg in the data set on HCT-116 [7] came out at 60%. In addition, the Activity result in the data set on Mus musculus [8] is “Toxic”. For the same compound, the values for the half-maximal inhibitory concentration (IC50) in the data set on COLO 205 and on Histone deacetylase 1 were 120 nM and 41 nM, respectively.
`O=C(/C=C/c1ccc2c(c1)nc(CCc1ccccc1)n2CCCn1ccnc1)NO` came in with an IC50 with COLO 205 of over 100000 nM.
As to `Cl.Cl.O=C(/C=C/c1ccc2c(c1)nc(CCc1ccccc1)n2CCN1CCCCC1)NO`, the 50% inhibitory concentration (IC50) turned out to be 100 nM with HCT-116 [1], 31 nM with A2780 and 120 nM in the data set on PC-3. In addition, the t1/2 in data set [2] stood at 1.3 min. The same compound yielded a half-life in the data set “in vitro [3]” of 10 min.
On Histone deacetylase 1, `Cn1c(CCc2ccccc2)nc2cc(C3CC3C(=O)NO)ccc21` (centres undefined) returned an IC50 of 1300 nM.
`CCCCCCCCc1nc2cc(/C=C/C(=O)NO)ccc2n1CCCO` gave an IC50 with COLO 205 of 3700 nM. This counts as single-digit micromolar.
Regarding `O=C(NO)c1ccc2c(c1)nc(CCc1ccccc1)n2CCCO`, half-maximal inhibition in the data set with COLO 205 (IC50) was put at 26000 nM.
As to `CC(Cc1nc2cc(/C=C/C(=O)NO)ccc2n1CCCO)c1ccccc1` (centres undefined), the IC50 with COLO 205 turned out to be 1700 nM; at Histone deacetylase 1, 80 nM.
In the case of `O=C(/C=C/c1ccc2c(c1)nc(CCc1ccccc1)n2CCN1CCCCC1)NO`, the results for the IC50 with COLO 205 and at Histone deacetylase 1 were 90 nM and 26 nM, respectively. Further, the MTD in [5] came out at 75 mg/kg. Moreover, in the data set on HCT-116 [9], the inhibition in vivo at 75 mg/kg worked out at 32%.
In the data set on COLO 205, `O=C(/C=C/c1ccc2c(c1)nc(CCc1ccccc1)n2CCN1CCOCC1)NO` had an IC50 of 2800 nM.
`CCn1c(CCc2ccccc2)nc2cc(/C=C/C(=O)NO)ccc21`: in the data set with COLO 205, the IC50 was 1500 nM.
`O=C(O)CCn1c(CCc2ccccc2)nc2cc(/C=C/C(=O)NO)ccc21` showed an IC50 against Histone deacetylase 1 of 2300 nM.
Regarding `O=C(/C=C/c1ccc2c(c1)nc(-c1ccsc1)n2CCCO)NO`, half-maximal inhibition with COLO 205 (IC50) was put at 31000 nM.
As for `Nc1ccccc1NC(=O)/C=C/c1ccc2c(c1)nc(CCc1ccccc1)n2Cc1ccccn1`, the half-inhibitory concentration (IC50) was 5100 nM in the data set on COLO 205 and over 100000 nM against Histone deacetylase 1.
Taken in the same sequence, the figures for `O=C(/C=C/c1ccc2c(c1)nc(CCc1ccccc1)n2CCCN1CCCC1)NO` were 610 nM and 310 nM.
For `Cl.Cl.O=C(/C=C/c1ccc2c(c1)nc(CCc1ccccc1)n2CCN1CCCC1)NO`, the half-maximal inhibitory concentration (IC50) in the data set with HCT-116 [1] is 200 nM; in the data set on A2780 it was 190 nM; with PC-3, 150 nM. For the same compound, the half-life in the data set “in vitro [3]” was over 30 min; in the data set “in vitro [4]” it was 2.7 min.
The compound `O=C(/C=C/c1ccc2c(c1)nc(CCc1ccccc1)n2CCCN1CCOCC1)NO` showed an IC50 with COLO 205 of 1900 nM.
With `CCCn1c(CCc2ccccc2)nc2cc(/C=C/C(=O)NO)ccc21`, the results for the IC50 in the data set on COLO 205 and against Histone deacetylase 1 were 2300 nM and 170 nM, respectively.
In the case of `CCN(CC)CCn1c(CCc2ccccc2)nc2cc(/C=C/C(=O)NO)ccc21`, in the data set on HCT-116 [10], the inhibition in vivo at 60 mg/kg amounted to 12%. Moreover, the IC50 in the data set on COLO 205 came out at 220 nM; at Histone deacetylase 1, 52 nM. Moreover, in data set [5], the MTD came out at 60 mg/kg.
The compound `O=C(/C=C/c1ccc2c(c1)nc(CCc1ccccc1)n2CCCN1CCCC1=O)NO` displayed an IC50 in the data set on COLO 205 of 11000 nM.
With `COc1cc(Cn2c(CCc3ccccc3)nc3cc(/C=C/C(=O)NO)ccc32)cc(OC)c1OC`, the IC50 with COLO 205 turned out to be 320 nM; against Histone deacetylase 1, 47 nM.
The like results for `O=C(/C=C/c1ccc2nc(CCc3ccccc3)n(Cc3ccccc3)c2c1)NO` were, in that order, 5400 nM and 1200 nM.
Regarding `CCN(CC)CCn1c(CCc2ccccc2)nc2cc(/C=C/C(=O)NO)ccc21.Cl.Cl`, the IC50 in the data set on HCT-116 [1] is 240 nM; in the data set on A2780 it was 100 nM; in the data set on PC-3, 200 nM. Also, the half-life stood at 16 min in “in vitro [3]” and 2.8 min in the data set “in vitro [4]”.
Turning to `O=C(/C=C/c1ccc2c(c1)nc(COCc1ccccc1)n2CCCO)NO`, in the data set on COLO 205, half-maximal inhibition (IC50) was put at 4100 nM.
In the data set on COLO 205, `O=C(/C=C/c1ccc2c(c1)nc(C1CCCCC1)n2CCCO)NO` registered an IC50 of 31000 nM.
With `O=C(CCCCCCC(=O)Nc1ccccc1)NO` [VORINOSTAT], in [5], the MTD was found to be 200 mg/kg.
Consider `O=C(/C=C/c1ccc2c(c1)nc(CCc1ccccc1)n2CCN1CCCC1)NO`, for which the result with HCT-116 [11] and in the data set with Mus musculus [12] was Active.
As to `O=C(/C=C/c1ccc2nc(CCc3ccccc3)[nH]c2c1)NO`, the IC50 turned out to be 4400 nM in the data set on COLO 205 and 170 nM against Histone deacetylase 1.
The like results for `CC(C)Cc1nc2cc(/C=C/C(=O)NO)ccc2n1CCCO` were, in that order, 26000 nM and 100 nM.
Taken in the same sequence, the figures for `O=C(/C=C/c1ccc2c(c1)nc(CCc1ccccc1)n2Cc1ccccc1)NO` were 1600 nM and 410 nM.
In the data set on COLO 205, `COc1cc(Cn2c(CCc3ccccc3)nc3cc(CCC(=O)NO)ccc32)cc(OC)c1OC` returned a 50% inhibitory concentration (IC50) of 2400 nM.
